Measured values from patent US10351561B2, “Pyrazolo[3,4-b]pyridines and imidazo[1,5-b]pyridazines as PDE1 inhibitors” (H. Lundbeck A/S, priority 2016, dated 2019).
Where two headings read alike, the source gives them in different places.

Columns and labels:
Assay type in all cases: biochemical
Details in all cases: 15 nM tritium labelled cAMP, 1 hr at room temperature, SPA beads
PDE1A = PDE1A (Homo sapiens, UniProt P54750); experiment: PDE1 inhibition assay (PDE1A), SPA with tritium labelled cAMP
Procedure: (§1) PDE1A, PDE1B and PDE1C assays were performed as follows: the assays were performed in 60 μL samples containing a fixed amount of the PDE1 enzyme (sufficient to convert 20-25% of the cyclic nucleotide substrate), a buffer (50 mM HEPES (4-(2-hydroxyethyl)-1-piperazineethanesulfonic acid) pH 7.6; 10 mM MgCl2; 0.02% Tween20), 0.1 mg/ml BSA (bovine serum albumin), 15 nM tritium labelled cAMP and varying amounts of inhibitors. Reactions were initiated by addition of the cyclic nucleotide substrate, and reactions were allowed to proceed for 1 hr at room temperature before being terminated through mixing with 20 μL (0.2 mg) yttrium silicate SPA beads (PerkinElmer). The beads were allowed to settle for 1 hr in the dark before the plates were counted in a Wallac 1450 Microbeta counter. The measured signals were converted to activity relative to an uninhibited control (100%) and IC50 values were calculated using XIFit (model 205, IDBS).

PDE1B = PDE1B (Homo sapiens, UniProt Q01064); experiment: PDE1 inhibition assay (PDE1B), SPA with tritium labelled cAMP
Procedure: Reactions were initiated by addition of the cyclic nucleotide substrate, and reactions were allowed to proceed for 1 hr at room temperature before being terminated through mixing with 20 μL (0.2 mg) yttrium silicate SPA beads (PerkinElmer).

PDE1C = PDE1C (Homo sapiens, UniProt Q14123); experiment: PDE1 inhibition assay (PDE1C), SPA with tritium labelled cAMP
Procedure: as §1

PDE1A, sequence (P54750 whole entry): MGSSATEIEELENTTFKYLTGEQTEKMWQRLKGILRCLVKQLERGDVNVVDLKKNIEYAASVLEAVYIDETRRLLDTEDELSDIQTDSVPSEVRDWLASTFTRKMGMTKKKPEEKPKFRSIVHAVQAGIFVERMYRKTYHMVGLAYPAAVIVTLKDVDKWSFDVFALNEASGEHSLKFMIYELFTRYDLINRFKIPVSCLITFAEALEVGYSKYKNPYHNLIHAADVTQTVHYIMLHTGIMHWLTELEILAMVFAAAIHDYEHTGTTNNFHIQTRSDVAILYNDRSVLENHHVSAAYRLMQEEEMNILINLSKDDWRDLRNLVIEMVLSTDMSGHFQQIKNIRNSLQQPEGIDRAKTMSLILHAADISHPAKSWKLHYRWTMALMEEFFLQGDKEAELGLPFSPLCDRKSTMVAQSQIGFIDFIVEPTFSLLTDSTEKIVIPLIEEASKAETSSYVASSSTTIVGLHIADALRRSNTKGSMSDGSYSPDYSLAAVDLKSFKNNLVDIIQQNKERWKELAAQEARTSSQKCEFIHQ
PDE1B, sequence (Q01064 whole entry): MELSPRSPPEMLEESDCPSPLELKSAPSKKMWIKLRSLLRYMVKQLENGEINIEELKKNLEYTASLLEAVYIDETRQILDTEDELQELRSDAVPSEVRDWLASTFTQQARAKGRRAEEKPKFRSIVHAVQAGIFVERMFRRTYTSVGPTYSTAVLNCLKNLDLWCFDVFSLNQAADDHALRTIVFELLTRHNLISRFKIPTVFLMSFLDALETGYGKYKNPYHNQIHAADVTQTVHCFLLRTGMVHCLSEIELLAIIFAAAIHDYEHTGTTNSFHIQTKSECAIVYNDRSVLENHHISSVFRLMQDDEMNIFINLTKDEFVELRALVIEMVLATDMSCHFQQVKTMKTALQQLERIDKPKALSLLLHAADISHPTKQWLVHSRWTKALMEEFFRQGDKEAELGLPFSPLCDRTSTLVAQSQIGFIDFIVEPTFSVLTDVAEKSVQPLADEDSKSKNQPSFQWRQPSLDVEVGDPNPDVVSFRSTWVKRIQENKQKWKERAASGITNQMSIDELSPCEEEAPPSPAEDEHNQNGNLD
PDE1C, sequence (Q14123 whole entry): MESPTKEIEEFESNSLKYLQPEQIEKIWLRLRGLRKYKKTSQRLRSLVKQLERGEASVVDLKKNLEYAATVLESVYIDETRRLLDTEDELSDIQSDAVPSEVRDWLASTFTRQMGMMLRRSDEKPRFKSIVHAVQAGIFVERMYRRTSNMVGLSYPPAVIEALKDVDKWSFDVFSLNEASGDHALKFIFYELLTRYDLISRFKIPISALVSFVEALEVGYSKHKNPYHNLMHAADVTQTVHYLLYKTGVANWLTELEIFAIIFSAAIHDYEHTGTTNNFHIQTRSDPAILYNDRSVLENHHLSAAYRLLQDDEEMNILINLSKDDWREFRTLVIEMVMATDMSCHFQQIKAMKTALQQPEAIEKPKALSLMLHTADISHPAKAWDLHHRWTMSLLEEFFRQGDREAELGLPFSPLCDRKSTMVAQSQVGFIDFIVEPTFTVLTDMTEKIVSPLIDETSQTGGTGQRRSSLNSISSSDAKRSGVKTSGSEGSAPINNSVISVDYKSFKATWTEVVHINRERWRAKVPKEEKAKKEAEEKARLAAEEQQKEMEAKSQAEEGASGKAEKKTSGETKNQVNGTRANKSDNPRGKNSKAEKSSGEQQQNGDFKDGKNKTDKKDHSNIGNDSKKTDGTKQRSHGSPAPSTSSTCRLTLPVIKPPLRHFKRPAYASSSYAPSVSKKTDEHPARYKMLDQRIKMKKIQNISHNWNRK

COc1ncccc1-c1cc(NCc2ncn(C)n2)c2c(C(C)C)nn(C)c2n1 [Example 55, 3-isopropyl-6-(2-methoxy-3-pyridyl)-1-methyl-N-[(1-methyl-1,2,4-triazol-3-yl)methyl]pyrazolo[3,4-b]pyridin-4-amine] showed an IC50 (PDE1A) of 130 nM, an IC50 (PDE1B; read-out: PDE1B, IC50) of 30 nM and an IC50 (PDE1C) of 45 nM.

CC(C)c1nn(C)c2nc(-c3cccn(C)c3=O)cc(NCc3ncn(C)n3)c12 [Example 56, 3-(3-isopropyl-1-methyl-4-(((1-methyl-1H-1,2,4-triazol-3-yl)methyl)amino)-1H-pyrazolo[3,4-b]pyridin-6-yl)-1-methylpyridin-2(1H)-one] was tested, and the IC50 (PDE1A) was 290 nM, the IC50 (PDE1B; read-out: PDE1B, IC50) was 52 nM and the IC50 (PDE1C) was 480 nM.

COc1nccnc1-c1cc(NCc2ncn(C)n2)c2c(C(C)C)nn(C)c2n1 [Example 57, 3-isopropyl-6-(3-methoxypyrazin-2-yl)-1-methyl-N-((1-methyl-1H-1,2,4-triazol-3-yl)methyl)-1H-pyrazolo[3,4-b]pyridin-4-amine] showed an IC50 (PDE1A) of 91 nM, an IC50 (PDE1B; read-out: PDE1B, IC50) of 22 nM and an IC50 (PDE1C) of 6.5 nM.

Cc1sccc1-c1cc(NCc2ncn(C)n2)c2c(C(C)C)nn(C)c2n1 [Example 58, 3-isopropyl-1-methyl-6-(2-methyl-3-thienyl)-N-[(1-methyl-1,2,4-triazol-3-yl)methyl]pyrazolo[3,4-b]pyridin-4-amine] gave an IC50 (PDE1A) of 29 nM, an IC50 (PDE1B; read-out: PDE1B, IC50) of 4.6 nM and an IC50 (PDE1C) of 31 nM.

Cc1coc(-c2cc(NCc3ncn(C)n3)c3c(C(C)C)nn(C)c3n2)n1 [Example 59, 3-isopropyl-1-methyl-N-((1-methyl-1H-1,2,4-triazol-3-yl)methyl)-6-(4-methyloxazol-2-yl)-1H-pyrazolo[3,4-b]pyridin-4-amine] gave an IC50 (PDE1A) of 99 nM, an IC50 (PDE1B; PDE1B, IC50 (nM)) of 14 nM and an IC50 (PDE1C) of 67 nM.

Cc1csc(-c2cc(NCc3ncn(C)n3)c3c(C(C)C)nn(C)c3n2)n1 [Example 60, 3-isopropyl-1-methyl-6-(4-methylthiazol-2-yl)-N-[(1-methyl-1,2,4-triazol-3-yl)methyl]pyrazolo[3,4-b]pyridin-4-amine] was tested, and the IC50 (PDE1A) was 48 nM, the IC50 (PDE1B; read-out: PDE1B, IC50) was 8.8 nM and the IC50 (PDE1C) was 74 nM.

Compound Cc1ncsc1-c1cc(NCc2ncn(C)n2)c2c(C(C)C)nn(C)c2n1 [Example 61, 3-isopropyl-1-methyl-N-((1-methyl-1H-1,2,4-triazol-3-yl)methyl)-6-(4-methylthiazol-5-yl)-1H-pyrazolo[3,4-b]pyridin-4-amine] has an IC50 (PDE1A) of 32 nM, an IC50 (PDE1B; read-out: PDE1B, IC50) of 4.6 nM and an IC50 (PDE1C) of 46 nM.

For Cc1cnc(-c2cc(NCc3ncn(C)n3)c3c(C(C)C)nn(C)c3n2)s1 [Example 62, 3-isopropyl-1-methyl-6-(5-methylthiazol-2-yl)-N-[(1-methyl-1,2,4-triazol-3-yl)methyl]pyrazolo[3,4-b]pyridin-4-amine], the IC50 (PDE1A) was 280 nM, the IC50 (PDE1B; read-out: PDE1B, IC50) was 170 nM and the IC50 (PDE1C) was 150 nM.

For CC(C)c1nn(C)c2nc(-c3ccccc3)cc(NCc3ncn(C)n3)c12 [Example 63, 3-isopropyl-1-methyl-N-[(1-methyl-1,2,4-triazol-3-yl)methyl]-6-phenyl-pyrazolo[3,4-b]pyridin-4-amine], the IC50 (PDE1A) was 83 nM, the IC50 (PDE1B; read-out: PDE1B, IC50) was 21 nM and the IC50 (PDE1C) was 36 nM.

With COc1ncncc1-c1cc(NCc2ncn(C)n2)c2c(C(C)C)nn(C)c2n1 [Example 64, 3-isopropyl-6-(4-methoxypyrimidin-5-yl)-1-methyl-N-[(1-methyl-1,2,4-triazol-3-yl)methyl]pyrazolo[3,4-b]pyridin-4-amine] the IC50 (PDE1A) was 66 nM, the IC50 (PDE1B; read-out: PDE1B, IC50) was 13 nM and the IC50 (PDE1C) was 2.9 nM.

In the case of CC(C)c1nn(C)c2nc(-c3cccs3)cc(NCc3ncn(C)n3)c12 [Example 65, 3-isopropyl-1-methyl-N-[(1-methyl-1,2,4-triazol-3-yl)methyl]-6-(2-thienyl)pyrazolo[3,4-b]pyridin-4-amine], the IC50 (PDE1A) is reported as 31 nM, the IC50 (PDE1B; read-out: PDE1B, IC50) is reported as 5.1 nM and the IC50 (PDE1C) is reported as 46 nM.

With CCOc1nnccc1-c1cc(NCc2ncn(C)n2)c2c(C(C)C)nn(C)c2n1 [Example 66, 6-(3-ethoxypyridazin-4-yl)-3-isopropyl-1-methyl-N-[(1-methyl-1,2,4-triazol-3-yl)methyl]pyrazolo[3,4-b]pyridin-4-amine] the IC50 (PDE1A) was 27 nM, the IC50 (PDE1B; read-out: PDE1B, IC50) was 3.7 nM and the IC50 (PDE1C) was 39 nM.

In the case of CCCOc1nnccc1-c1cc(NCc2ncn(C)n2)c2c(C(C)C)nn(C)c2n1 [Example 67, 3-isopropyl-1-methyl-N-[(1-methyl-1,2,4-triazol-3-yl)methyl]-6-(3-propoxypyridazin-4-yl)pyrazolo[3,4-b]pyridin-4-amine], the IC50 (PDE1A) is reported as 7.8 nM, the IC50 (PDE1B; read-out: PDE1B, IC50) is reported as 2.7 nM and the IC50 (PDE1C) is reported as 19 nM.

Work on CCOc1cnccc1-c1cc(NCc2ncn(C)n2)c2c(C(C)C)nn(C)c2n1 [Example 68, 6-(3-ethoxy-4-pyridyl)-3-isopropyl-1-methyl-N-[(1-methyl-1,2,4-triazol-3-yl)methyl]pyrazolo[3,4-b]pyridin-4-amine] yielded an IC50 (PDE1A) of 58 nM, an IC50 (PDE1B; read-out: PDE1B, IC50) of 5.5 nM and an IC50 (PDE1C) of 59 nM.

In the case of CCOc1nnccc1-c1cc(NCc2cnn(C)c2)c2c(C(C)C)nc(C)n2n1 [Example 69, 2-(3-ethoxypyridazin-4-yl)-5-isopropyl-7-methyl-N-[(1-methylpyrazol-4-yl)methyl]imidazo[1,5-b]pyridazin-4-amine], the IC50 (PDE1A) is reported as 24 nM, the IC50 (PDE1B; read-out: PDE1B, IC50) is reported as 5.2 nM and the IC50 (PDE1C) is reported as 25 nM.

Compound CCOc1cnccc1-c1cc(NCc2cnn(C)c2)c2c(C(C)C)nc(C)n2n1 [Example 70, 2-(3-ethoxy-4-pyridyl)-5-isopropyl-7-methyl-N-[(1-methylpyrazol-4-yl)methyl]imidazo[1,5-b]pyridazin-4-amine] has an IC50 (PDE1A) of 21 nM, an IC50 (PDE1B; read-out: PDE1B, IC50) of 6.3 nM and an IC50 (PDE1C) of 28 nM.

CCCOc1ncccc1-c1cc(NCc2cnn(C)c2)c2c(C(C)C)nc(C)n2n1 [Example 71, 5-isopropyl-7-methyl-N-[(1-methylpyrazol-4-yl)methyl]-2-(2-propoxy-3-pyridyl)imidazo[1,5-b]pyridazin-4-amine] was tested, and the IC50 (PDE1A) was 3.3 nM, the IC50 (PDE1B; read-out: PDE1B, IC50) was 1 nM and the IC50 (PDE1C) was 7 nM.

In the case of CCCOc1ncccc1-c1cc(NCc2ncn(C)n2)c2c(C(C)C)nc(C)n2n1 [Example 72, 5-isopropyl-7-methyl-N-[(1-methyl-1,2,4-triazol-3-yl)methyl]-2-(2-propoxy-3-pyridyl)imidazo[1,5-b]pyridazin-4-amine], the IC50 (PDE1A) is reported as 1.4 nM, the IC50 (PDE1B; read-out: PDE1B, IC50) is reported as 0.27 nM and the IC50 (PDE1C) is reported as 1.1 nM.

Work on CCOc1ncccc1-c1cc(NCc2cccnc2F)c2c(C(C)C)nc(C)n2n1 [Example 73, 2-(2-ethoxy-3-pyridyl)-N-[(2-fluoro-3-pyridyl)methyl]-5-isopropyl-7-methyl-imidazo[1,5-b]pyridazin-4-amine] yielded an IC50 (PDE1A) of 33 nM, an IC50 (PDE1B; read-out: PDE1B, IC50) of 3.6 nM and an IC50 (PDE1C) of 29 nM.

Compound CCOc1ncccc1-c1cc(NCc2ccccn2)c2c(C(C)C)nc(C)n2n1 [Example 74, 2-(2-ethoxy-3-pyridyl)-5-isopropyl-7-methyl-N-(2-pyridylmethyl)imidazo[1,5-b]pyridazin-4-amine] has an IC50 (PDE1A) of 180 nM, an IC50 (PDE1B; read-out: PDE1B, IC50) of 27 nM and an IC50 (PDE1C) of 190 nM.

Compound CCOc1ncccc1-c1cc(NCc2ncccn2)c2c(C(C)C)nc(C)n2n1 [Example 75, 2-(2-ethoxy-3-pyridyl)-5-isopropyl-7-methyl-N-(pyrimidin-2-ylmethyl)imidazo[1,5-b]pyridazin-4-amine] has an IC50 (PDE1A) of 11 nM, an IC50 (PDE1B; read-out: PDE1B, IC50) of 0.13 nM and an IC50 (PDE1C) of 24 nM.

With CCOc1ncccc1-c1cc(NCc2ncc(F)cn2)c2c(C(C)C)nc(C)n2n1 [Example 76, 2-(2-ethoxy-3-pyridyl)-N-[(5-fluoropyrimidin-2-yl)methyl]-5-isopropyl-7-methyl-imidazo[1,5-b]pyridazin-4-amine] the IC50 (PDE1A) was 89 nM, the IC50 (PDE1B; read-out: PDE1B, IC50) was 17 nM and the IC50 (PDE1C) was 110 nM.

With CCOc1ncccc1-c1cc(NCc2cccnc2OC)c2c(C(C)C)nc(C)n2n1 [Example 77, 2-(2-ethoxy-3-pyridyl)-5-isopropyl-N-[(2-methoxy-3-pyridyl)methyl]-7-methyl-imidazo[1,5-b]pyridazin-4-amine] the IC50 (PDE1A) was 48 nM, the IC50 (PDE1B; read-out: PDE1B, IC50) was 9 nM and the IC50 (PDE1C) was 48 nM.

CCOc1ncccc1-c1cc(NCc2cccc3cncn23)c2c(C(C)C)nc(C)n2n1 [Example 78, 2-(2-ethoxy-3-pyridyl)-N-(imidazo[1,5-a]pyridin-5-ylmethyl)-5-isopropyl-7-methyl-imidazo[1,5-b]pyridazin-4-amine] was tested, and the IC50 (PDE1A) was 61 nM, the IC50 (PDE1B; read-out: PDE1B, IC50) was 5.5 nM and the IC50 (PDE1C) was 39 nM.

CCOc1ncccc1-c1cc(NCc2cccc3nccn23)c2c(C(C)C)nc(C)n2n1 [Example 79, 2-(2-ethoxy-3-pyridyl)-N-(imidazo[1,2-a]pyridin-5-ylmethyl)-5-isopropyl-7-methyl-imidazo[1,5-b]pyridazin-4-amine] showed an IC50 (PDE1A) of 35 nM, an IC50 (PDE1B; read-out: PDE1B, IC50) of 28 nM and an IC50 (PDE1C) of 19 nM.

With CCOc1ncccc1-c1cc(NCc2cccnc2C(F)(F)F)c2c(C(C)C)nc(C)n2n1 [Example 80, 2-(2-ethoxy-3-pyridyl)-5-isopropyl-7-methyl-N-[[2-(trifluoromethyl)-3-pyridyl]methyl]imidazo[1,5-b]pyridazin-4-amine] the IC50 (PDE1A) was 74 nM, the IC50 (PDE1B; read-out: PDE1B, IC50) was 15 nM and the IC50 (PDE1C) was 72 nM.
